Read-outs that look alike come from different tables or passages of the source.
What was measured:
[1] = system: NFκB induction (SEAP) in Ramos-blue cells; assay: NFkB activation in Ramos-Blue cells for additional TLR7 agonists (Example 31); type: cell-based; conditions: for EC (2-fold SEAP signal): lowest concentration that doubles the SEAP background (nontreated) signal, read-out: Lowest concentration to induce 2x SEAP; for Fold increase in SEAP signal at lowest active concentration: versus nontreated background
Description: A 3× serial dilution was performed in 10% DMSO in PBS for each payload to have a final range of concentration from 1000 uM to 76 nM. Ramos-blue cells (InvivoGen, cat #rms-sp) were cultured using high glucose DMEM media supplied with 10% fetal bovine serum according to the manufacturer guidelines. The media was supplemented with 50 U/mL penicillin, 50 ug/mL streptomycin, and 100 ug/mL normocin to prevent bacterial contamination. The cell density and viability were calculated using a Countess Cell Counter and the proper volume of cells was removed in order to have a seeding density of 0.2×10^6 cells/mL per well. 135 uL of the cell suspension was added to each well in a 96-well plate along with 15 uL of the corresponding payload treatment. Each assay point was run in triplicate and the plate was incubated at 37° C. with 5% CO2 for 24 or 72 hours. In order to assess the NFκB induction, the QUANTI-Blue™ solution was prepared by adding 200 uL of QB reagent (InVivogen cat #rep-qbs) and 200 uL of QB buffer to 19.6 mL of water. The resulting solution was vortexed and incubated at room temperature for ten minutes. The 96-well plate was centrifuged at 1990 rpm for ten minutes and 40 uL of the cell supernatant was added to 160 uL of the prepared QUANTI-Blue™ solution. The QB reaction plate was incubated at 37° C. for 24 hours. The plate was read using the Molecular Devices i3x plate reader at a wavelength of 630 nm to determine the amount of SEAP production. The table below illustrates the lowest concentration of each compound that results in a doubling of the SEAP background (nontreated) signal. As illustrated, compounds of the invention ranged from low nM to low micromolar.

[2] = system: NFκB pathway in Ramos-blue cells; assay: Ramos-Blue NFκB/SEAP reporter assay with cysteine-capped linker-payloads, 72 h (Example 15); type: cell-based; conditions: read-out: Relative Activation
Description: A 50 mM cysteine stock was prepared in 0.1 M PBS pH 7.4. 10 equivalents of 50 mM cysteine were added to 1 equivalent of linker-payload to create a 2.50 mM solution. The reaction was vortexed and sat at room temperature for an hour to allow for the Michael addition to occur. After an hour, an aliquot was taken and run via UPLC-MS to ensure for the complete Michael reaction. The reaction was diluted to 1 mM using 0.1M PBS pH 7.4. The 1 mM solution was diluted to 500 uM and 50 uM in a 96-well plate to afford a final concentration of 50 uM and 5 uM in the cell suspension. The cell density and viability were calculated using the Countess Cell Counter and the proper volume of cells was removed in order to have a seeding density of 0.2×10^6 cells/mL per well. 135 uL of cell suspension was added to each well in a 96-well plate along with 15 uL of the corresponding linker-payload treatment. Each concentration was run in triplicate and incubated at 37° C. with 5% CO2 for 72 hours.
Invivogen's QUANTI-Blue™ solution was prepared by adding 200 uL of QB reagent and 200 uL of QB buffer to 19.6 mL of water. The resulting solution was vortexed and incubated at room temperature for ten minutes. The 96-well plate was centrifuged at 1990 rpm for ten minutes. Then, 40 uL of cell supernatant was added to 160 uL of the prepared QUANTI-Blue™ solution and incubated at 37° C. for 24 hours. The plate was read using the Molecular Devices i3x plate reader at a wavelength of 630 nm to determine the amount of SEAP production.

[3] = Linker-Payload Dose 5 uM, cysteine-capped, 72 hours, SEAP at 630 nm
[4] = Linker-Payload Dose 50 uM, cysteine-capped, 72 hours, SEAP at 630 nm

Compound	EC (2-fold SEAP signal) [1]	Fold increase in SEAP signal at lowest active concentration [1]	also measured
CCCCc1nc2c(N)nc3ccccc3c2n1Cc1ccc(NC(=O)CCCCCNC(=O)OC(C)(C)C)cc1 [20e, tert-butyl(6-((4-((4-amino-2-butyl-1H-imidazo[4,5-c]quinolin-1-yl)methyl)phenyl)amino)-6-oxohexyl)carbamate]	0.069 µM	2.983	–
CCCCc1nc2c(N)nc3ccccc3c2n1Cc1ccc(NC(=O)CCCNC(=O)OC(C)(C)C)cc1 [20c, tert-butyl(4-((4-((4-amino-2-butyl-1H-imidazo[4,5-c]quinolin-1-yl)methyl)phenyl)amino)-4-oxobutyl)carbamate]	0.0076 µM	2.352	–
CCCCc1nc2c(N)nc3ccccc3c2n1Cc1cccc(NC(=O)OC(C)(C)C)c1 [23e, Tert-butyl (3-((4-amino-2-butyl-1H-imidazo[4,5-c]quinoline-1-yl)methyl)phenyl)carbamate]	1.87 µM	4.344	–
CCCCc1nc2c(N)nc3ccccc3c2n1Cc1ccc(CNC(=O)OCc2ccc(NC(=O)C(CCCNC(N)=O)NC(=O)C(NC(=O)CCCCCN3C(=O)C=CC3=O)C(C)C)cc2)cc1 (stereo not shown) [Mc_ValCitPABC_E66, 4-(2-(2-(6-(2,5-Dioxo-2,5-dihydro-1H-pyrrol-1-yl)hexanamido)-3-methylbutanamido)-5-ureidopentanamido)benzyl 4-((4-amino-2-butyl-1H-imidazo[4,5-c]quinolin-1-yl)methyl)benzylcarbamate]	–	–	activation at 5 µM [2, 3]: 7.15%; activation at 50 µM [2, 4]: -19.7%
CCOCc1cc2c(NC(=O)C(CCCNC(N)=O)NC(=O)C(NC(=O)CCCCCN3C(=O)C=CC3=O)C(C)C)nc3ccccc3c2n1CC(C)(C)O (stereo not shown) [Mc_ValCit_Resiquimod, 6-(2,5-Dioxo-2,5-dihydro-1H-pyrrol-1-yl)-N-(1-(1-(2-(ethoxymethyl)-1-(2-hydroxy-2-methylpropyl)-1H-pyrrolo[3,2-c]quinolin-4-ylamino)-1-oxo-5-ureidopentan-2-ylamino)-3-methyl-1-oxobutan-2-yl)hexanamide]	–	–	activation at 5 µM ([2]; 72 h): 11.4%; activation at 50 µM ([2]; 72 h): -23.1%
CCOCc1nc2c(NC(=O)CCCCCN3C(=O)C=CC3=O)nc3ccccc3c2n1CC(C)(C)O [Mc_Resiquimod, 6-(2,5-dioxo-2,5-dihydro-1H-pyrrol-1-yl)-N-(2-(ethoxymethyl)-1-(2-hydroxy-2-methylpropyl)-1H-imidazo[4,5-c]quinolin-4-yl)hexanamide]	–	–	activation at 5 µM [2, 3]: 17.6%; activation at 50 µM [2, 4]: -21%
CCCCc1nc2c(N)nc3ccccc3c2n1Cc1ccc(NC(C)=O)cc1 [20l, N-(4-((4-amino-2-butyl-1H-imidazo[4,5-c]quinolin-1-yl)methyl)phenyl)acetamide]	0.023 µM	2.11	–
CCCCc1nc2c(N)nc3ccccc3c2n1Cc1ccc(NC(=O)OCc2ccc(NC(=O)C(CCCNC(N)=O)NC(=O)C(NC(=O)CCCCCN3C(=O)C=CC3=O)C(C)C)cc2)cc1 (stereo not shown) [Mc_ValCitPABC_E104, 4-(2-(2-(6-(2,5-dioxo-2,5-dihydro-1H-pyrrol-1-yl)hexanamido)-3-methylbutanamido)-5-ureidopentanamido)benzyl 4-((4-amino-2-butyl-1H-imidazo[4,5-c]quinolin-1-yl)methyl)phenylcarbamate]	–	–	activation at 5 µM [2, 3]: 12.7%; activation at 50 µM [2, 4]: -19.2%
CCCCc1nc2c(N)nc3ccccc3c2n1Cc1ccc(CNC(=O)C(CCCNC(N)=O)NC(=O)C(NC(=O)CCCCCN2C(=O)C=CC2=O)C(C)C)cc1 (stereo not shown) [Mc_ValCit_E66, N-(1-(1-(4-((4-amino-2-butyl-1H-imidazo[4,5-c]quinolin-1-yl)methyl)benzylamino)-1-oxo-5-ureidopentan-2-ylamino)-3-methyl-1-oxobutan-2-yl)-6-(2,5-dioxo-2,5-dihydro-1H-pyrrol-1-yl)hexanamide]	–	–	activation at 5 µM [2, 3]: 125%; activation at 50 µM [2, 4]: -51.4%
CCCCc1nc2c(N)nc3ccccc3c2n1Cc1ccc(NC(=O)OC(C)C)cc1 [20n, Isopropyl (4-((4-amino-2-butyl-1H-imidazo[4,5-c]quinolin-1-yl)methyl)phenyl)carbamate]	0.0076 µM	1.925	–
CCCCc1nc2c(N)nc3ccccc3c2n1Cc1cccc(O)c1 [21f, 3-((4-amino-2-butyl-1H-imidazo[4,5-c]quinolin-1-yl)methyl)phenol]	0.21 µM	2.902	–
CCCCc1nc2c(N)nc3ccccc3c2n1Cc1ccc(O)cc1 [22f, 4-((4-amino-2-butyl-1H-imidazo[4,5-c]quinolin-1-yl)methyl)phenol]	0.069 µM	2.269	–
CCCCC(=O)Nc1ccc(Cn2c(CCCC)nc3c(N)nc4ccccc4c32)cc1 [20k, N-(4-((4-amino-2-butyl-1H-imidazo[4,5-c]quinolin-1-yl)methyl)phenyl)pentanamide]	0.0076 µM	2.398	–
CCCCc1nc2c(N)nc3ccccc3c2n1Cc1ccc(NC(=O)CN)cc1 [20f, 2-amino-N-(4-((4-amino-2-butyl-1H-imidazo[4,5-c]quinolin-1-yl)methyl)phenyl)acetamide]	0.069 µM	2.225	–
CCCCc1nc2c(N)nc3ccccc3c2n1Cc1cccc(N)c1 [23f, 1-(3-aminobenzyl)-2-butyl-1H-imidazo[4,5-c]quinoline-4-amine]	0.023 µM	1.946	–
CCCCc1nc2c(N)nc3ccccc3c2n1Cc1cccc(OC)c1 [21e, 2-butyl-1-(3-methoxybenzyl)-1H-imidazo[4,5-c]quinoline-4-amine]	0.62 µM	5.753	–
CCCCc1nc2c(N)nc3ccccc3c2n1Cc1ccc(NC(=O)OCC)cc1 [20m, ethyl (4-((4-amino-2-butyl-1H-imidazo[4,5-c]quinolin-1-yl)methyl)phenyl)carbamate]	0.023 µM	3.188	–
CCCCc1nc2c(N)nc3ccccc3c2n1Cc1ccc(OC)cc1 [22e, 2-butyl-1-(4-methoxybenzyl)-1H-imidazo[4,5-c]quinolin-4-amine]	0.21 µM	2.537	–
CCCCOC(=O)Cc1ccc(Cn2c(CCCC)nc3c(N)nc4ccccc4c32)cc1 [20o, Butyl 2-(4-((4-amino-2-butyl-1H-imidazo[4,5-c]quinolin-1-yl)methyl)phenyl)acetate]	0.069 µM	4.158	–
CCCCc1nc2c(N)nc3ccccc3c2n1Cc1ccc(NC(=O)CCN)cc1 [20g, 3-amino-N-(4-((4-amino-2-butyl-1H-imidazo[4,5-c]quinolin-1-yl)methyl)phenyl)propanamide]	0.62 µM	2.638	–
CCCCc1nc2c(N)nc3ccccc3c2n1Cc1ccc(NC(=O)CCCCNC(=O)OC(C)(C)C)cc1 [20d, tert-butyl(5-((4-((4-amino-2-butyl-1H-imidazo[4,5-c]quinolin-1-yl)methyl)phenyl)amino)-5-oxopentyl)carbamate]	0.0076 µM	2.222	–
(3-((4-((4-amino-2-butyl-1H-imidazo[4,5-c]quinolin-1-yl)methyl)phenyl)amino)-3-oxopropyl)carbamate [20b]	0.0076 µM	4.416	–
CCCCc1nc2c(N)nc3ccccc3c2n1Cc1ccc(NC(=O)CCCCCN)cc1 [20j, 6-amino-N-(4-((4-amino-2-butyl-1H-imidazo[4,5-c]quinolin-1-yl)methyl)phenyl)hexanamide]	0.21 µM	2.802	–

— US20240189440A1, “TLR7 AND TLR8 AGONISTS FOR THE TREATMENT OF CANCER AND/OR INFECTIOUS DISEASES” (priority 2021, published 2024)
